Experimental data as given in patent publication US20260294890A1, “LONG-TERM PREVENTION AND/OR TREATMENT OF A DISEASE BY SLO-1 INHIBITORS” (Elanco Animal Health GmbH, priority 2023, published 2026).

Key:
[1] = Assay 1: half-life and plasma clearance upon intravenous administration to beagle dogs; format: in vivo; details: dog, iv dose up to 0.3 mg/kg, plasma, geometric mean, Phoenix PK/PD (Example 1: internal tool)
Method: Assay 1: Determination of Half-Life and Plasma Clearance of Compounds of the Invention Upon Administration to Beagle Dogs
Compounds according to the invention were administered as an intravenous (iv) dose (up to 0.3 mg/kg) to beagle dogs (minimum n=3). Blood samples were collected from these beagle dogs up to 168 h after intravenous administration and up to 3024 h after subcutaneous administration. A portion of each whole blood sample was processed to plasma. Compound concentrations were determined in plasma using LCMS/MS. Phoenix™ Pharmacokinetic and Pharmacodynamic (PK/PD) was used to determine half-life and plasma clearance values. Only for Example 1, an internal tool available to the inventors was used to determine the half-life and plasma clearance values.

[2] = log P by HPLC on reversed phase columns (LC-MS Method 0); format: physicochemical; details: 0.1% formic acid/acetonitrile; Method 0, acidic range, 0.1% formic acid in water and acetonitrile; read-out: log P (HCOOH)
Method: Measurement of log P values was performed according to EEC directive 79/831 Annex V.A8 by HPLC (High Performance Liquid Chromatography) on reversed phase columns with the following methods, instrument(s): Agilent 1100 LC system, Agilent MSD system, HTS PAL; Waters IClass Acquity UPLC, SQD2 (MS), PDA (UV). • ^[a]log P value is determined by measurement of LC-UV, in an acidic range, with 0.1% formic acid in water and acetonitrile as eluent (linear gradient from 10% acetonitrile to 95% acetonitrile). • ^[b]log P value is determined by measurement of LC-UV, in a neutral range, with 0.001 molar ammonium acetate solution in water and acetonitrile as eluent (linear gradient from 10% acetonitrile to 95% acetonitrile).
Calibration was done with straight-chain alkan-2-ones (with 3 to 16 carbon atoms) with known log P values (measurement of log P values using retention times with linear interpolation between successive alkanones). Lambda-max-values were determined using UV-spectra from 200 nm to 400 nm and the peak values of the chromatographic signals.

SMILES: O=C(N[C@H]1CCOc2ccccc21)c1cnc2c(-c3cc(F)cc(F)c3F)c(F)ccc2c1N1CC(F)C1 [Example 7, N-[(4S)-3,4-Dihydro-2H-chromen-4-yl]-7-fluoro-4-(3-fluoroazetidin-1-yl)-8-(2,3,5-trifluorophenyl)quinoline-3-carboxamide]
- clearance [1]: 0.833 mL/min/kg
- half-life ([1]; read-out: Half-life (h/Form) iv, geometric mean (converted)): 124 h
- chromatographic logP [2]: 1.93
